Legend:
ERK = ERK phosphorylation in rat lamina I dorsal horn neurons in vivo; conditions: i.t. 30 min before intraplantar capsaicin
Method: Painful peripheral stimuli activate ERK in NKiR-expressing spinal neurons, which coincides with receptor endocytosis and contributes to hyperalgesia. Intraplantar capsaicin stimulated ERK phosphorylation in lamina I dorsal horn neurons (FIG. 5B). […] Thus, capsaicin stimulates clathrin- and dynamin-dependent NK1R endocytosis and ERK activation in spinal neurons in vivo.
After 10 min, rats were transcardially perfused with PBS and then 4% PFA. The spinal cord was removed, immersion fixed in PFA (2 h, 4° C.), and cryoprotected (30% sucrose, PBS, 24 h, 4° C.). The spinal cord (T12 to L4) was embedded in OCT and […] serial coronal sections were cut into 48-well plates containing PBS. Free-floating sections were blocked in PBS containing 10% normal horse serum (1 h, RT). […]
Tissues and cells were observed using a Leica SP8 confocal microscope using HCX PL APO 40× (NA 1.30) and HCX PL APO 63× (NA 1.40) oil objectives. […] NK1R endocytosis and pERK expression were quantified using ImageJ. To quantify NK1R internalization in lamina I neurons, the border of the cytoplasm of the neuronal soma was defined by NeuN fluorescence, and NK1R fluorescence within 5 pixels (0.5 μm) of the border was defined as plasma membrane-associated receptor. The ratio of plasma membrane to cytosolic NK1R-IR fluorescence was determined in >6 lamina I neurons per condition. […]

[1] = system: motor coordination of mice; test: Rotarod; format: in vivo, mouse; conditions: i.t. 50 μM
Method: Mice were acclimatized by 3 trials on 2 successive days before experiments. Mice were trained to remain on the rotarod for three consecutive periods. On the experimental day, three baseline time trials (cut-off 120 s) were recorded. […] After 30 min, mice were placed on the rotarod with accelerating velocity for up to 120 s. Times were recorded in 3 successive trials, and latency time to fall was determined at 30, 90 and 120 min

NK1R = NK1R (Rattus norvegicus, UniProt P14600); test: BRET of NK1R trafficking (KRas-Venus, Rab5a-Venus) in HEK293 cells; format: cell-based; design: Full length and truncated 6312 rat HA-NK1R have been described; expressed in transfected cells; host or cells: HEK293 (transient); conditions: inhibitor plus SP
Method: Bioluminescence Resonance Energy Transfer (BRET) was employed to quantitatively assess the proximity of the NK1R to key regulators of GPCR trafficking (βarrs), and resident proteins of plasma (KRas) and early endosomal (Rab5a) membranes in HEK293 cells (FIG. 1A).
HEK293 cells were transfected with the following cDNAs: 1 μg NK1R-RLuc8 or 1 μg CLR-RLuc8+1 μg Myc-RAMP1+4 μg KRas-Venus, 4 μg Rab5a-Venus, 4 μg βarr1-YFP, or 4 μg βarr2-YFP; or 1 μg NK1R+0.5 μg Gαq-RLuc8+1 μg Gβ1+4 μg Gγ2-Venus; or 1 μg NK1R+0.5 μg Gαq-RLuc8+1 μg Gβ1+1 μg Gγ2+4 μg Rab5a-Venus. After 48 h, cells were equilibrated in Hank's balanced salt solution (HBSS) at 37° C., and incubated with the RLuc substrate coelenterazine h (5 μM, 15 min).

Chain of NK1R (P14600 whole entry, the tested form may be a part): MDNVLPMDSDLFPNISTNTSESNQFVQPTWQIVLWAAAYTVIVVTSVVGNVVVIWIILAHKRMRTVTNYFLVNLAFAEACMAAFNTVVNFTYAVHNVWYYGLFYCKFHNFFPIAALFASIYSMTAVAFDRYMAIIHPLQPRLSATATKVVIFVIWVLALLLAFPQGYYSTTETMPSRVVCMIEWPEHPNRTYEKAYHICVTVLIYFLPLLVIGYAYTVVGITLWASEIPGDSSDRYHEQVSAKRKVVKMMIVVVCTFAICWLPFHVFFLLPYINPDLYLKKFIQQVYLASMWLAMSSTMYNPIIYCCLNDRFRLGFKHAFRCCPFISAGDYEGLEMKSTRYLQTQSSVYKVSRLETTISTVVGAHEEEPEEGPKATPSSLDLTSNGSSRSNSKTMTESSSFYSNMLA

SMILES	effect on capsaicin-evoked activation of spinal ERK (ERK)	effect on rotarod latency [1]	effect on SP-induced NK1R endocytosis (BRET KRas-Venus decrease, Rab5a-Venus increase) (NK1R)
O=C(N/N=C/c1cc(O)c(O)cc1O)c1cc2ccccc2cc1O [Dy4]	prevented capsaicin-evoked activation of spinal ERK	did not affect	blocked
O=C1NC(=NS(=O)(=O)c2cccc3ccccc23)S/C1=C\c1ccc(Br)cc1 [PS2]	prevented capsaicin-evoked activation of spinal ERK	did not affect	blocked

— US11324832B2, “Tripartite modulators of endosomal G protein-coupled receptors” (Endosome Therapeutics, Inc., priority 2015, dated 2022)
